According to patent US20180002288A1, “USE OF PICOLINAMIDES AS FUNGICIDES” (DOW AGROSCIENCES LLC, priority 2014, published 2018):
Like-named read-outs stand apart in the source and are kept apart here.

Assays:
Phakopsora pachyrhizi = test: Asian Soybean Rust fungicidal activity (PHAKPA); conditions: Phakopsora pachyrhizi, in Glycine max
Zymoseptoria tritici = test: Leaf Blotch of Wheat fungicidal activity (SEPTTR); assay type: in vivo; conditions: Low Volume Cereal Activity at 121.5 g/Ha
Puccinia triticina = test: Wheat Brown Rust fungicidal activity (PUCCRT); assay type: in vivo; conditions: Low Volume Cereal Activity at 121.5 g/Ha
[1] = 24 h, read-out: PHAKPA 1DP % Control rating, soybean, high volume, 25 ppm, 1 Day Protectant
[2] = 72 h, read-out: PHAKPA 3DC % Control rating, soybean, high volume, 25 ppm, 3 Day Curative
[3] = 24 h, 1 Day Protectant, read-out: SEPTTR 1DP (Wheat Leaf Blotch, 1 Day Protectant)
[4] = 72 h, 3 Day Curative, read-out: SEPTTR 3DC (Wheat Leaf Blotch, 3 Day Curative)
[5] = 24 h, 1 Day Protectant, read-out: PUCCRT 1DP (Wheat Brown Rust, 1 Day Protectant)
[6] = 72 h, 3 Day Curative, read-out: PUCCRT 3DC (Wheat Brown Rust, 3 Day Curative)

Compound | pest or weed control at 25 ppm (Phakopsora pachyrhizi; [1]) | pest or weed control at 25 ppm (Phakopsora pachyrhizi; [2]) | pest or weed control at 121.5 g/ha (Zymoseptoria tritici; [3]) | pest or weed control at 121.5 g/ha (Zymoseptoria tritici; [4]) | pest or weed control at 121.5 g/ha (Puccinia triticina; [5]) | pest or weed control at 121.5 g/ha (Puccinia triticina; [6])
COc1ccnc(C(=O)N[C@@H](C)C(=O)O[C@@H](C)[C@H](OCC2CC2)c2ccccc2)c1OCOC(C)=O [Example 182] | > 80% | < 80% | > 80% | > 80% | > 80% | > 80%
COc1ccnc(C(=O)N[C@@H](C)C(=O)O[C@@H](C)[C@H](Oc2ccccc2)c2ccccc2)c1OC(C)=O [Example 184] | < 80% | < 80% | > 80% | > 80% | > 80% | > 80%
COc1ccnc(C(=O)N[C@@H](C)C(=O)O[C@@H](C)[C@H](Oc2cccc(F)c2)c2ccccc2)c1OC(C)=O [Example 188] | > 80% | < 80% | > 80% | > 80% | > 80% | > 80%
COc1ccnc(C(=O)N[C@@H](C)C(=O)O[C@@H](C)[C@H](Oc2ccccc2Cl)c2ccccc2)c1OCOC(C)=O [Example 204] | > 80% | < 80% | < 80% | > 80% | > 80% | > 80%
COc1ccnc(C(=O)N[C@@H](C)C(=O)O[C@@H](C)[C@H](OCC2CC2)c2cccc(-c3ccccc3)c2)c1OCOC(C)=O [Example 220] | > 80% | < 80% | < 80% | > 80% | > 80% | > 80%
COc1ccnc(C(=O)N[C@@H](C)C(=O)O[C@@H](C)[C@H](OCC(C)C)c2ccccc2)c1OC(C)=O [Example 225] | > 80% | < 80% | < 80% | > 80% | > 80% | > 80%
CCCO[C@H](c1ccccc1)[C@H](C)OC(=O)[C@H](C)NC(=O)c1nccc(OC)c1OC(C)=O [Example 228] | > 80% | < 0% | < 80% | > 80% | > 80% | > 80%
COc1ccnc(C(=O)N[C@@H](C)C(=O)O[C@@H](C)[C@@H](OC)c2ccccc2)c1OCOC(C)=O [Example 230] | < 80% | < 80% | < 0% | > 80% | > 80% | > 80%
COc1ccnc(C(=O)N[C@@H](C)C(=O)O[C@@H](C)[C@@H](OCC2CC2)c2ccccc2)c1OC(C)=O [Example 232] |  |  | < 0% | > 80% | > 80% | > 80%
COc1ccnc(C(=O)N[C@@H](C)C(=O)O[C@@H](C)[C@H](OCC2CC2)c2ccccc2)c1OC(C)=O [Example 233] | > 80% | < 80% | > 80% | > 80% | > 80% | > 80%
COc1ccnc(C(=O)N[C@@H](C)C(=O)O[C@@H](C)[C@H](OCC2CC2)c2ccc(-c3ccccc3)cc2)c1OCOC(C)=O [Example 234] |  |  | > 80% | > 80% | > 80% | < 80%
COc1ccnc(C(=O)N[C@@H](C)C(=O)O[C@@H](C)[C@H](Oc2ccccc2)c2ccc(-c3ccccc3)cc2)c1OCOC(C)=O [Example 239] |  |  | > 80% | > 80% | > 80% | < 80%
COc1ccnc(C(=O)N[C@@H](C)C(=O)O[C@@H](C)[C@H](Oc2ccccc2)c2cccc(-c3ccccc3)c2)c1OCOC(C)=O [Example 240] |  |  | > 80% | > 80% | > 80% | < 80%
COc1ccnc(C(=O)N[C@@H](C)C(=O)O[C@@H](C)[C@H](Oc2ccc(C)cc2Cl)c2ccccc2)c1OC(C)=O [Example 243] |  |  | > 80% | > 80% | > 80% | < 80%
